Experimental findings from US10150773B2, “N-substituted 8-[(2,6-difluorobenzyl)oxy]-2,6- dimethylimidazo[1,2-a]pyrazin-3-carboxamide derivatives as stimulators of soluble guanylate cyclase (SGC) for the treatment of cardiovascular diseases” (Bayer Pharma Aktiengesellschaft, priority 2015, dated 2018) are described below.

The subject of this assay is recombinant guanylate cyclase reporter cell line. Kind of assay: Effect on a recombinant guanylate cyclase reporter cell line. The class given is cell-based. The note with it: in some cases mean values from individual determinations. The method, then: B-2. Effect on a Recombinant Guanylate Cyclase Reporter Cell Line
The cellular activity of the compounds according to the invention is determined using a recombinant guanylate cyclase reporter cell line, as described in F. Wunder et al., Anal. Biochem. 339, 104-112 (2005).
Representative MEC values (MEC=minimum effective concentration) for the compounds of the invention are shown in the table below (in some cases as mean values from individual determinations): […]

Regarding `Cc1cn2c(C(=O)NCC(C)(N)CC[Si](C)(C)C)c(C)nc2c(OCc2c(F)cccc2F)n1` (single isomer, unassigned; enantiomer b) [Example 5, ent-N-[2-Amino-2-methyl-4-(trimethylsilyl)butyl]-8-[(2,6-difluorobenzyl)oxy]-2,6-dimethylimidazo[1,2-a]pyrazine-3-carboxamide (Enantiomer B)], the “MEC (minimum effective concentration)” value came out at 1.0 µM.
`Cc1cn2c(C(=O)N[C@@](C)(CO)c3nnc(C)s3)c(C)nc2c(OCc2c(F)cccc2F)n1` [Example 1, ent-8-[(2,6-Difluorobenzyl)oxy]-N-[(2S)-1-hydroxy-2-(5-methyl-1,3,4-thiadiazol-2-yl)propan-2-yl]-2,6-dimethylimidazo[1,2-a]pyrazine-3-carboxamide]: the “MEC (minimum effective concentration)” value amounted to 0.65 µM.
Next, `[2H]C([2H])([2H])CC(C)(N)CNC(=O)c1c(C)nc2c(OCc3c(F)cccc3F)nc(C)cn12` (single isomer, unassigned; enantiomer a) [Example 3, ent-N-[2-Amino-2-methyl(4,4,4-^2H3)butyl]-8-[(2,6-difluorobenzyl)oxy]-2,6-dimethylimidazo[1,2-a]pyrazine-3-carboxamide (Enantiomer A)]: 0.65 µM; `Cc1cn2c(C(=O)NC(C)(CO)c3nnn(C(F)F)n3)c(C)nc2c(OCc2c(F)cccc2F)n1` (racemic) [Example 2, rac-8-[(2,6-Difluorobenzyl)oxy]-N-{2-[2-(difluoromethyl)-2H-tetrazol-5-yl]-1-hydroxypropan-2-yl}-2,6-dimethylimidazo[1,2-a]pyrazine-3-carboxamide]: 0.10 µM; `Cc1cn2c(C(=O)NCC(C)(N)CC[Si](C)(C)C)c(C)nc2c(OCc2c(F)cccc2F)n1` (single isomer, unassigned; enantiomer a) [Example 4, ent-N-[2-Amino-2-methyl-4-(trimethylsilyl)butyl]-8-[(2,6-difluorobenzyl)oxy]-2,6-dimethylimidazo[1,2-a]pyrazine-3-carboxamide (Enantiomer A)]: 1.0 µM.
